Reference: patent US20250114455A1, “RADIOSENSITIZING COMPOSITIONS AND METHODS OF USE THEREOF” (University of Georgia Research Foundation, Inc., priority 2022, published 2025)
Where a SMILES comes first, the peptide text is derived from it. [ ]: non-standard residue; d: D form. The star is where a group is joined. ξ: configuration not given here. ξGly(4-Pip(1-amidino)) = N=C(N)N1CCC(C(N)C(=O)O)CC1; ξGly(piperidin-4-yl) = NC(C(=O)O)C1CCNCC1; ξTle = CC(C)(C)C(N)C(=O)O; ξP = O=C(O)C1CCCN1; X1 = CC(CS)C(=O)*

Key:
MTT cell viability assay = assay type: cell-based, murine; settings: mouse, CT26 cells, no radiation, read-out: IC50 (cytotoxicity)
Protocol: (§1) CT26, a murine colorectal carcinoma cell line, was cultured following the protocol provided by the ATCC. A complete growth medium was prepared by adding 50 mL fetal bovine serum (FBS; Atlanta Biologicals, Cat #S11150) and 5 mL penicillin-streptomycin (Corning Cat #30-002-CI) to 450 mL of RPMI 1640 medium (Corning, Cat #10-104-CV). The cells were sub-cultured every three days and stored in a Thermo Scientific Heracell 150i incubator at 37° C. A day before the experiment, the cells were washed with PBS and collected by trypsinization (37° C., 2 min) followed by neutralization with cell culture medium and centrifugation (1200 rpm, 5 min). The supernatant was removed, and cells were dispersed in new cell culture medium. The cell density was counted using a hemocytometer (Hausser Scientific, Cat #3200) to seed the desired number of cells on the experimental plate(s).
(§2) The cell viability was studied with CT26 cells using the standard MTT assays. Briefly, CT26 cells (10,000 cells per well) were seeded on clear 96-well plates (Corning Costar, Cat #3599). […] 20 μL of 10 mg/mL 3-(4,5-Dimethylthiazolyl-2)-2,5-diphenyltetrazolium bromide (MTT) solution was added into each well. After 4 h incubation at 37° C. and 5% CO2, the solution was discarded from each well, and 100 μL of DMSO was added to each well resulting in purple suspensions. The absorbance at 570 nm was measured using a BioTek Synergy MX multi-mode microplate reader.

CT26 cells = assay: MTT cell viability assay; assay type: cell-based, murine; settings: 24 h; for toxicity / viability drop in the absence of radiation: 7-DHC concentration below 12.5 μg/mL
Protocol: as §1, §2

[1] = LC/MS analysis of autooxidation and lipid peroxidation; settings: 320 kV, 5 Gy
Protocol: Samples were generated by mixing solutions of 10 mg/mL 7-DHC, or 5 mg/mL DHCEO in 5 mL solvent containing 4 mL CH3CN+1 mL Mil-Q-H2O (or 1 mL H2O2). Samples were treated with either PBS or 5 Gy IR followed by incubation for 24 h. The lipid sample was prepared by using 16:0-18:2 PC mixed with 7-DHC at a 3:1 mole ratio in 2:1 v/v of CHCl3:MeOH solution. The solvent was then rotor evaporated and the mixture was rehydrated in 1 mL Mil-Q-H2O. Samples were subjected to LC/MS analysis. Liquid chromatography was performed on an Applied Biosystems 140 B solvent delivery system using water with 0.1% formic acid as solvent A and acetonitrile as solvent B. The linear solvent gradient was from 70% B to 95% B over 20 minutes at a flow rate of 50 μl/min. A Thermo Hypersil-Keystone 1×150 mm Biobasic-4 column with 5 μm particle size and 300 A pore size was used. The effluent was directed into a Bruker Daltonics Esquire 3000 plus ion trap mass spectrometer equipped with an atmospheric pressure chemical ionization (electrospray ionization for the lipid sample) source. The instrument was scanned in enhanced mode from 340-500 m/z with the capillary at 4 KV. The dry as temperature was held at 300 degrees C. at a flow rate of 41/min nitrogen. The nebulizer was set to 15 PSI of nitrogen. The vaporizer temperature was held at 380 degrees C.

[2] = cited from earlier work
NTSR1 = NTSR1 (Homo sapiens, UniProt P30989); settings: compared to wildtype NTS; cited from earlier work
[3] = compared to wildtype NTS; cited from earlier work
serum calcium level = assay type: in vivo, balb/c mice; settings: 200 μg/kg injected, healthy mice; tolerated level for mice 8.0-11.5 mg/dl
Protocol: Blood samples were collected at 0, 2, 6, and 24 h for analysis.

Sequence of NTSR1 (P30989 whole entry): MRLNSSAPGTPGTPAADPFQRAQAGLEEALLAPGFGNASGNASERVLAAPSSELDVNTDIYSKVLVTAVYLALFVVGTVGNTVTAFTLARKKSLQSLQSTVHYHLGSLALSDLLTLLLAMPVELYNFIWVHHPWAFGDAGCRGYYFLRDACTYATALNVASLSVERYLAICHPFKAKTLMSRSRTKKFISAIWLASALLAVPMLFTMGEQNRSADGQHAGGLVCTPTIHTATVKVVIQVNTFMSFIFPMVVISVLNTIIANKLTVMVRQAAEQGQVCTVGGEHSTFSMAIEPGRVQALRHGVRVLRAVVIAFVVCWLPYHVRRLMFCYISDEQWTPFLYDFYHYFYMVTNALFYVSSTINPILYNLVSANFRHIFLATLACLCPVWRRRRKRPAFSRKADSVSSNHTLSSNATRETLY

CC(C)CCC[C@@H](C)[C@H]1CC[C@H]2C3=CC=C4C[C@@H](O)CC[C@]4(C)[C@H]3CC[C@]12C [7-DHC, 7-dehydrocholesterol]
IC50 at 24 h (MTT cell viability assay): 71.4 µg/mL
toxicity / viability drop in the absence of radiation (CT26 cells): Neither 7-DHC nor 7-DHC@PLGA NPs caused significant viability drop
toxicity / viability drop in the absence of radiation (CT26 cells; listed as free 7-DHC): minimal toxicity
conversion after radiation (LC/MS) [1]: converted to oxysterols
solubility in water [2]: poorly soluble in water

CC(C)C[C@H](NC(=O)C(NC(=O)[C@H](Cc1ccc(O)cc1)NC(=O)C1CCCN1C(=O)[C@H](CCCNC(=N)N)NC(=O)C(NC(=O)C1CCCN1C(=O)C(NC(=O)C(C)CS)C1CCNCC1)C1CCN(C(=N)N)CC1)C(C)(C)C)C(=O)O (stereo partly drawn) [NTSmut] (X1-[ξGly(piperidin-4-yl)][ξP][ξGly(4-Pip(1-amidino))]R[ξP]Y[ξTle]L-OH)
avidity to NTSR1 (NTSR1): nanomolar
biological stability [3]: much greater biological stability

C=C1/C(=C\C=C2/CCC[C@]3(C)[C@@H]([C@H](C)CCCC(C)(C)O)CC[C@@H]23)C[C@@H](O)C[C@@H]1O [calcitriol]
serum calcium (serum calcium level): 17.5 mg/dL

NCCC(=O)N[C@@H](Cc1cnc[nH]1)C(=O)O [carnosine, reference compound]
effect of co-incubation on toxicity induced by 7-DHC@PLGA NPs+IR (CT26 cells; MTT, IR 5 Gy): mitigated toxicity
